Results reported in US6258806A, “Amine derivatives of oxo- and hydroxy- substituted hydrocarbons” (Narhex Limited, priority 1992, dated 2001).

Assays:
[1] = test system: Human Immunodeficiency Virus type 1 (HIV) strain #237228 in human peripheral blood lymphocytes (PBLs); experiment: Anti-HIV-1 antiviral activity in acutely infected peripheral blood lymphocytes (CPE and RT activity); assay type: cell-based, Human Immunodeficiency Virus type 1 (HIV); human cells; settings: for IC100: Human immunodeficiency virus 1, 144 h, PBL cells, acute HIV-1 infection, day 6, concentration at which virus replication is inhibited (CPE negative or trace, >95% inhibition of RT activity); for antiviral index (Al), PBL cells: only non-toxic concentrations used, 8640 min
Source text: (§1) The antiviral activity of representative compounds of the present invention has been determined at the Antivirals Laboratory, Fairfield Hospital, Fairfield, Victoria, Australia. In this test a stock solution of each compound was made in DMSO, then diluted in culture medium (RF 10) to 2× the final concentration required for test. The final concentration of DMSO was 1% or below. Approximately 250,000 continuous lymphocytes of human origin (MT2 cells) or 750,000 human peripheral blood lymphocytes (PBLs) were exposed to dilutions of each test compound, then immediately infected with Human Immunodeficiency Virus type 1 (HIV) strain #237228 (a clinical isolate obtained from a human source). The infectivity titers were expressed as tissue culture 50% infective dose (TCID50 per ml) with 1 TCID50 corresponding to the amount of supernatant required to infect 50% of the replicate cell cultures. The 250 and 200 TCID50 were used for MT2 and PBL cells respectively. The cell/drug/virus mixture was then incubated at 37° C./CO2 in a 24-well microtitre plate. Fresh amounts of the appropriate dilution of each drug were added to both MT2 and PBL cultures at day 3. At day 6, the extent of HIV-specific cytopathic effects (CPE) associated with each concentration of test compound in each of the cultures was rated according to the following scale:
(§2) 4+: 75-100% of cells showing 3+: good CPE
(§3) 3+: 50-75% of cells showing 2+: moderate CPE
(§4) 2+: 25-50% of cells showing 1+: low CPE
(§5) 1+: 5-25% of cells showing trace: minimal CPE
(§6) +/-: less than 5% CPE Negative: no CPE
(§7) The activity of the compounds at each concentration was also assessed by their ability to inhibit viron-associated reverse transcriptase (RT) activity in the culture supernates. At the time of rating of CPE, supernatant fluids from each well were removed and RT activity measured using a standard assay. CPE ratings of negative, ± (in MT2 cells) or trace (in PBLs), with greater than 95% inhibition of RT activity, was considered to represent IC100 (the concentration of compound at which the virus replication is inhibited). Control cultures included in each test were:
(§8) (a) HIV-infected cells in the absence of test compound.
(§9) (b) Uninfected cells in the absence of tested compound.
(§10) (c) Cell toxicity control consisting of uninfected cells treated with dilutions of test compound.
(§11) At the conclusion of each experiment, viable cells in these cultures, as determined by tryptan blue exclusion, were compared with the counts obtained in (b), above.

[2] = test system: Human Immunodeficiency Virus type 1 (HIV) strain #237228 in MT2 cells; experiment: Anti-HIV-1 antiviral activity in acutely infected MT2 cells (CPE and RT activity); assay type: cell-based; settings: for IC100: Human immunodeficiency virus 1, 144 h, acute HIV-1 infection, day 6, concentration at which virus replication is inhibited (CPE negative or ±, >95% inhibition of RT activity); for antiviral index (Al), MT2 cells: only non-toxic concentrations used, 8640 min
Source text: as §1, §2, §3, §4, §5, §6, §7, §8, §9, §10, §11

[3] = target: HIV-1 protease (Human immunodeficiency virus type 1 group M subtype B, UniProt P04585); experiment: HIV-1 protease-inhibiting activity; assay type: biochemical; settings: half-maximal inhibition of HIV-1 protease
Source text: The HIV protease-inhibiting activity of representative compounds of the present invention has been tested by known methods (Brinkworth, R. I., et al., Biochem. Biophys. Res. Commun. 176, 241, (1991); McLeod, D. A., et al., Bioorganic & Medicinal Chemistry Letters (1991) 653-658).

[4] = test system: MT2 cells and PBLs; experiment: Toxicity to the cells (viable cells, trypan blue exclusion); assay type: cell-based, human; settings: compared to AZT (azidothymidine), in words
Source text: as §10, §11

SMILES | IC100 [1] [µM] | antiviral index (Al), PBL cells [1] | IC100 [2] [µM] | antiviral index (Al), MT2 cells [2] | IC50 [3] [nM] | toxicity to the cells compared to AZT [4]
CC(C)N(C[C@@H](O)[C@H](Cc1ccccc1)NC(=O)[C@H](CC(N)=O)NC(=O)c1ccc2ccccc2n1)NC(=O)OC(C)(C)C [Compound 7A, t-Butyl 3-Isopropyl-3-[(2R,3S)-2-hydroxy-3-(N-quinaldyl-L-asparaginyl)amino-4-phenylbutyl]carbazate] | 1 | 25 | 1 | 50 | 7.3 ± 0.7 | 
CC(C)N(C[C@H](O)[C@H](Cc1ccccc1)NC(=O)[C@H](CC(N)=O)NC(=O)c1ccc2ccccc2n1)NC(=O)OC(C)(C)C [Compound 7B, t-Butyl 3-isogrooyl-3-[(2S, 3S)-2-hydroxy-3-(N-quinaldyl-L-asparaginyl)amino-4-phenylbutyl]carbazate] | 0.1 | > 200 | 0.1 | 200 | < 3.5 | lower toxicity to the cells
CC(C)(C)OC(=O)NN(C[C@H](O)[C@H](Cc1ccccc1)NC(=O)[C@H](CC(N)=O)NC(=O)c1ccc2ccccc2n1)C1CCCCC1 [Compound 17, t-Butyl 3-cyclohexyl-3-[(2S,3S)-2-hydroxy-3-(N-quinaldyl-L-asparaginyl)amino-4-phenylbutyl]carbazate] | 0.1 | 200 | 0.1 | 100 |  | lower toxicity to the cells
CC(C)N(C[C@@H](O)[C@H](Cc1ccccc1)NC(=O)[C@H](CC(N)=O)NC(=O)c1ccc2ccccc2n1)NC(=O)c1ccccc1NC(=O)OCc1ccccn1 [Compound 8, 1-(2-Pyridyl)methoxycarbonylanthranilyl-2-[(2R,3S)-2-hydroxy-3-(N-quinaldoyl-L-asparaginyl)amino4-phenylbutyl]-2-isopropyl-hydrazine] | 0.1 | > 100 | 0.1 | > 100 |  | lower toxicity to the cells
CC(C)(C)OC(=O)N1CC2CCCCC2CN1CC(O)[C@H](Cc1ccccc1)NC(=O)[C@H](CC(N)=O)NC(=O)c1ccc2ccccc2n1 (stereo partly drawn) [Compound 2a, cis-1,6-3-t-Butoxycarbonyl-4-[(2RS,3S)-2-hydroxy-3-(N-quinaldyl-L-asparaginyl)amino-4-phenylbutyl]-3,4daza-bicylo[4.4.0]decane] | 0.1 | 100 | 0.1 | 50 | 5.4 ± 0.54 | 
CC(C)(C)OC(=O)N1Cc2ccccc2CN1CC(O)[C@H](Cc1ccccc1)NC(=O)[C@H](CC(N)=O)NC(=O)c1ccc2ccccc2n1 (stereo partly drawn) [Compound 11, 2-t-Butoxycarbonyl-3-[(2RS, 3S)-2-hydroxy-3-(N-quinaldyl-L-asparaginyl)amino-4-phenylbutyl]-1,2,3,4-tetrahydrophthalazine] |  |  | 1 | > 10 | 12.5 ± 3.2 | 
